The source made the active and inactive calls. No cut-off for these calls is given here.
What was measured:
[1] = target: T1, Beta-2 adrenergic receptor (Cavia porcellus, UniProt Q8K4Z4); test: Agonist activity at beta2 adrenoceptor in guinea pig assessed as relaxation of histamine-induced tracheal ring contraction; type: functional, tissue-based, Trachea
[2] = target: 3',5'-cyclic-AMP phosphodiesterase 4B (Homo sapiens, UniProt Q07343); test: Inhibition of human recombinant PDE4B2-mediated cAMP hydrolysis for 30 mins by colorimetric assay
[3] = Inhibition of PDE4
[4] = target: Beta-2 adrenergic receptor (Cavia porcellus) (UniProt Q8K4Z4); test: Agonist activity at beta2 adrenoceptor in guinea pig assessed as relaxation of histamine-induced tracheal ring contraction in the presence of inverse agonist ICI-118551; type: functional, tissue-based; conditions: Trachea
[5] = target: T1, Beta-2 adrenergic receptor; test: Competitive antagonist activity at beta2-adrenoceptor in guinea pig tracheal ring in the presence of N-(5-((1R)-2-(4-(4-(3,4-[…])-1-oxo-4a,5,6,7,8,8a-hexahydrophthalazin-2(1H)-yl)butylamino-1-hydroxyethyl)-2-hydroxyphenyl)formamide; type: functional; conditions: read-out: pA2 (converted)

Chain of 3',5'-cyclic-AMP phosphodiesterase 4B (Q07343 whole entry): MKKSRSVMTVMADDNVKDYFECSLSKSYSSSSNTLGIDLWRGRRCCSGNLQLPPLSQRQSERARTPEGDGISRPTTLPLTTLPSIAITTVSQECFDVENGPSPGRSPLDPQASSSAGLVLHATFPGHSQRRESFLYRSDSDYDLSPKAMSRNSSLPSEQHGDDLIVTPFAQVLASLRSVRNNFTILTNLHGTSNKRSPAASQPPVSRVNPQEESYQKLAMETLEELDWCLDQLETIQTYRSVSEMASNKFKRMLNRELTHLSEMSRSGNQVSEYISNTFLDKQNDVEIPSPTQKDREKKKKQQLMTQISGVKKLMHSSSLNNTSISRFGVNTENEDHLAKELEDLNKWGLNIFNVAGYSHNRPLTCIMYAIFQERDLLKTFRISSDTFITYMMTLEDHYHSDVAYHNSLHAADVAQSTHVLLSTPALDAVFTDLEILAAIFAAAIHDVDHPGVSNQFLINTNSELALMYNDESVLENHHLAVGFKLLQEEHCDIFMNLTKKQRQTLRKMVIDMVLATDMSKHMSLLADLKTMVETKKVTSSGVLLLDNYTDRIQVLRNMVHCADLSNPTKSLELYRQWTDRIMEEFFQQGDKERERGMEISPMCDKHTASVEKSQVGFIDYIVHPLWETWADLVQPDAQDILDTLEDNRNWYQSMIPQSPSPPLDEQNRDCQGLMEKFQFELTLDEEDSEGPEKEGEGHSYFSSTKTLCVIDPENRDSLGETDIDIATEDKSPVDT
T1 sequence (Q8K4Z4 whole entry): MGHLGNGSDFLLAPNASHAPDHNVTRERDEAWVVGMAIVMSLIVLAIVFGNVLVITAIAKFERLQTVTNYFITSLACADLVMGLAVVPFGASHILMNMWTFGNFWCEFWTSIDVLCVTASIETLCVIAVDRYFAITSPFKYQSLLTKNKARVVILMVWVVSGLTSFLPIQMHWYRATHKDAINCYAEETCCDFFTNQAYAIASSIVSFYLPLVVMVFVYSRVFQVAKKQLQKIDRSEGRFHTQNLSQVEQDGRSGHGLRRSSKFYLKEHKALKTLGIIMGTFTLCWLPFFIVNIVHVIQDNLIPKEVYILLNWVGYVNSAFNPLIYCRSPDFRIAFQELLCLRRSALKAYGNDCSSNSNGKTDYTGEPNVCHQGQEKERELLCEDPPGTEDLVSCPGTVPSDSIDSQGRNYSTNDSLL
Chain of Beta-2 adrenergic receptor (Cavia porcellus) (Q8K4Z4 whole entry, looked up): as the sequence (Q8K4Z4 whole entry) above

EC50 [1] [µM]	IC50 [2] [µM]	IC50 [3] [µM]	Activity [4]	Kb [5] [µM]	Structure (SMILES)
0.02	0.257				COc1ccc(C2=NN(CCCCCNCC(O)c3ccc(O)c(NC=O)c3)C(=O)C3CCCCC23)cc1OC (stereo not drawn)
0.126	0.284				COc1ccc(C2=NN(CCCCNC[C@@H](O)c3ccc(O)c(NC=O)c3)C(=O)C3CCCCC23)cc1OC (stereo partly drawn)
0.0501	0.251				COc1ccc(C2=NN(CCCCCCNCC(O)c3ccc(O)c(NC=O)c3)C(=O)C3CCCCC23)cc1OC (stereo not drawn)
0.000501	0.278				COc1ccc(C2=NN(CCCCNCC(O)c3ccc(O)c(NC=O)c3)C(=O)C3CCCCC23)cc1OC (racemic)
0.0316					CC(C)NCC(O)c1ccc(O)c(O)c1 (stereo not drawn) [ISOPROTERENOL]
		0.095			COc1ccc([C@]2(C#N)CC[C@@H](C(=O)O)CC2)cc1OC1CCCC1 [CILOMILAST]
	0.52				COc1ccc(C2=NNC(=O)C3CCCCC23)cc1OC (stereo not drawn)
0.0001	0.265		inactive	0.000708	COc1ccc(C2=NN(CCCCNC[C@H](O)c3ccc(O)c(NC=O)c3)C(=O)C3CCCCC23)cc1OC (stereo partly drawn)
	0.52				O=c1[nH]ncc2ccccc12 [PHTHALAZINONE]
0.02	0.28				COc1ccc(C2=NN(CCNCC(O)c3ccc(O)c(NC=O)c3)C(=O)C3CCCCC23)cc1OC (stereo not drawn)
